Test results as given in EP4717275A1, “ANTI-LUNG CANCER COMBINED DRUG AND USE THEREOF” (Gunagdong Yinzhu Pharmaceutical Technology Co., Ltd, priority 2023, dated 2024).
Marks after values point to notes of the source that are not given here.

Columns and labels:
[1] = test system: human lung cancer NCI-H1975 xenografts; test: Therapeutic effect in vivo on NCI-H1975 xenografts in nude mice; design: species or system BALB/c Nude mice; conditions: PO; for Relative tumor proliferation rate(%) Day 21: %T/CRTV; for Tumor growth inhibition rate(%) Day 21: %TGITV from tumor volume vs control; for Tumor inhibition rate(%) Day 21: %TGITW from tumor weight vs control; for Tumor volume (mm^3,Mean±SEM) Day 21: QD×21, dose per group; for Relative tumor volume Day 21: RTV = Vt/V0, Mean ± SEM
Method: BALB/c Nude mice, female, 8-10 weeks old, 18-20g. […] Table 2 Experimental design of therapeutic effect of the drugs in vivo […] NCI-H1975 cells were cultured in RPMI 1640 medium supplemented with 10% FBS and maintained in a 37°C, 5% CO2 humidified incubator. Log-phase NCI-H1975 cells were harvested, resuspended in RPMI 1640 basal medium containing 50% Matrigel, and adjusted to a concentration of 2 × 10^7 cells/mL. Under aseptic conditions, 0.1 mL of the cell suspension was injected subcutaneously into the right flank of mice at a concentration of 2 × 10^6 cells/0.1 mL/mouse. […] The grouping day was designated as Day 0, and administration commenced according to animal body weight. […] Animal body weight and tumor volume were measured twice weekly throughout the experiment. Tumor length and width were measured using a digital caliper, with tumor volume estimated from these measurements. After the final weighing on Day 21, remaining animals were euthanized with CO2. Tumors were weighed, photographed, and the experiment concluded. […] Tumor growth inhibition rate (%TGITV) is calculated as: […] Relative Tumor Volume (RTV) is calculated as Vt/V0, where V0 is the tumor volume at grouping and Vt is the tumor volume at each measurement. Relative Tumor Growth Rate (%T/CRTV) is calculated as TRTV/CRTV × 100%, where TRTV is the RTV of the treatment group and CRTV is the RTV of the negative control group. Tumor growth inhibition rate (%TGITW) is calculated as: ([…] × 100%, where TWc is the average tumor weight in the negative control group and TWT is the average tumor weight in the treatment group. […] Drug-related animal mortality exceeding 20% indicates severe toxicity at that dose. All experimental data in this study are expressed as Mean ± SEM. The evaluation of the combination index (CI) of drugs relies on the following equation: […]), wherein E(A+B) is the inhibition rate of combination drug, EA and EB is the inhibition rate of drug A and drug B respectively. E(A+B) in the equation represents 'measured synergistic effect' and (EA+EB-EA×EB) is 'expected synergistic effect'. CI=0.85-1.15 indicates a mere addition of the effect of two drugs, >1.15 indicates enhancement (or synergy), and <0.85 indicates antagonism. • Combination index of tumor growth inhibition: CAI, 40mg/kg + AZD9291, 1mg/kg: 1.27; […] CAI, 40mg/kg + AZD9291, 1mg/kg: 1.20; […]

[2] = test system: human lung cancer NCI-H2228 xenografts; test: Therapeutic effect in vivo on NCI-H2228 xenografts in nude mice; design: species or system BALB/c Nude mice; conditions: PO; for Relative tumor proliferation rate(%) Day 21: %T/CRTV; for Tumor growth inhibition rate(%) Day 21: %TGITV from tumor volume vs control; for Tumor growth inhibition rate(%) Day 21 / Tumor volume (mm^3,Mean±SEM) Day 21 / Relative tumor volume Day 21: QD× 21; for Tumor inhibition rate(%) Day 21: %TGITW from tumor weight vs control; for Tumor volume (mm^3,Mean±SEM) Day 21: QD×21, dose per group; for Relative tumor volume Day 21: RTV = Vt/V0, Mean ± SEM
Method: (§1) BALB/c Nude mice, female, 8-10 weeks old, 18-20g. The variation of the body weight is ±20% around average body weight. 80 mice were inoculated and 60 mice were grouped.
Table 9 Experimental design of therapeutic effect of the drugs in vivo
NCI-H2228 cells were cultured in RPMI 1640 medium supplemented with 10% FBS and maintained in a 37°C, 5% CO2 humidified incubator.
Log-phase NCI-H2228 cells were harvested, resuspended in RPMI 1640 basal medium containing 50% Matrigel, and adjusted to a concentration of 2 × 10^7 cells/mL. Under aseptic conditions, 0.1 mL of the cell suspension was injected subcutaneously into the right flank of mice at a concentration of 2 × 10^6 cells/0.1 mL/mouse.
When the mean tumor volume reached approximately 150 mm^3, animals were randomly grouped based on tumor volume, ensuring inter-group tumor volume variation was less than 10% of the mean.
(§2) The grouping day was designated as Day 0, and administration commenced according to animal body weight.
(§3) The same as the therapeutic effect evaluation experiments for Examples 1-2 and Comparative Examples 1-3.

[3] = Animal body weight, fatality and toxicity observation in the NCI-H2228 xenograft study; type: in vivo, BALB/c Nude mice; conditions: dead/total animals at Day 21; NCI-H2228 study; PO, QD×21
Text: as §1, §2, §3

[4] = QD×21, listed as Comparative Example 2
[5] = QD×21, listed as Comparative Example 3
[6] = QD×21, listed as Comparative Example 5
[7] = QD×21, listed as Comparative Example 6
[8] = QD×21, listed as Comparative Example 5, CAI, 20mg /kg
[9] = QD×21, listed as Comparative Example 6, CAI, 40mg /kg

With `NC(=O)c1nnn(Cc2cc(Cl)c(C(=O)c3ccc(Cl)cc3)c(Cl)c2)c1N` [CAI, 5-Amino-1-[3,5-dichloro-4-(4-chlorobenzoyl chloride)benzyl]-1H-1,2,3-triazole-4-benzamide] the “Relative tumor proliferation rate(%) Day 21” value [1, 4] was 93.04%, the “Relative tumor proliferation rate(%) Day 21” value [1, 5] was 93.23% and the “Tumor growth inhibition rate(%) Day 21” value ([1]; QD×21) was 12.99%. For the same molecule, the “Tumor growth inhibition rate(%) Day 21” value [1, 5] was 12.33%, the “Tumor inhibition rate(%) Day 21” value [1, 4] was 15.76% and the “Tumor inhibition rate(%) Day 21” value [1, 5] was 7.06%. The “Tumor volume (mm^3,Mean±SEM) Day 21” value ([1]; listed as Comparative Example 2) was 1536.24 ±222.57 mm^3, the “Tumor volume (mm^3,Mean±SEM) Day 21” value ([1]; listed as Comparative Example 3) was 1547.91 ±221.67 mm^3 and the “Tumor weight (g,Mean±SEM) Day 21” value [1, 4] was 1.384 ± 0.266 g. The “Tumor weight (g,Mean±SEM) Day 21” value [1, 5] was 1.527 ± 0.257 g, the “Relative tumor volume Day 21” value [1, 4] was 10.03 +1.27 and the “Relative tumor volume Day 21” value [1, 5] was 10.05 ±1.30. The “Relative tumor proliferation rate(%) Day 21” value [2, 6] was 69.94%, the “Relative tumor proliferation rate(%) Day 21” value [2, 7] was 68.46% and the “Tumor growth inhibition rate(%) Day 21” value [2, 8] was 33.39%. The “Tumor growth inhibition rate(%) Day 21” value [2, 9] was 34.01%, the “Tumor inhibition rate(%) Day 21” value [2, 6] was 39.40% and the “Tumor inhibition rate(%) Day 21” value [2, 7] was 42.96%. The “Tumor volume (mm^3,Mean±SEM) Day 21” value ([2]; listed as Comparative Example 5, CAI, 20mg /kg) was 979.25± 64.93* mm^3, the “Tumor volume (mm^3,Mean±SEM) Day 21” value ([2]; listed as Comparative Example 6, CAI, 40mg /kg) was 970.11± 102.46* mm^3 and the “Tumor weight (g,Mean±SEM) Day 21” value [2, 6] was 0.529 ± 0.055 g. The “Tumor weight (g,Mean±SEM) Day 21” value [2, 7] was 0.498 ± 0.059 g, the “Relative tumor volume Day 21” value [2, 8] was 6.12±0.29 and the “Relative tumor volume Day 21” value [2, 9] was 5.99±0.48. For the same molecule, the Fatality [3] was 0/10 (Day 21).
